How the values were obtained:
[1] = system: U138-MG human glioma cell; experiment: Cell proliferation analysis (MTT); type: cell-based; settings: 10 µM, two days, MTT; for inhibition at 10 µM / activity at 10 µM: Homo sapiens, 48 h
Procedure: (§1) U87-MG and U138-MG human glioma cell, were incubated with 10% fetal bovine serum (FBS) (Gibco, 10500-064), 1% L-glutamine (Gibco, 25030-024), in a humidified incubator with 5% CO2 at 37 °C. The cells were contained in DMEM High Glucose (Gibco, 41966-029) supplemented with 1% penicillin-streptomycin (P/S) (Gibco 15140-122) solution. The cytotoxic effects of the target compounds on U87-MG and U138-MG cell lines were assessed using the MTT (Thiazolyl Blue Tetrazolium Bromide) method. 7×10^3 cells were seeded into a 96-well plate in 100 µl DMEM High Glucose 10% FBS and 1% P/S. 24 hours after cell incubation, each target compound was added at a dose of 10 µM and the drug treatment was carried out for two days. After the incubation period, 10 µL of MTT solution was added to each well (5 mg/ml in PBS). After 2 hours, MTT solutions were removed from the wells. Then, 100 µl DMSO was added, and mixed to dissolve the formazan crystals. Cell proliferation was analysed by measuring the absorbance of dissolved formazan at a wavelength of 570 nm.
(§2) IC50 values were determined using the same method as above wherein the cells were treated with the target compounds at different doses.

U87-MG human glioma cell = experiment: Cell proliferation analysis (MTT); type: cell-based; settings: 10 µM, two days, MTT; for inhibition at 10 µM / activity at 10 µM: Homo sapiens, U-87 MG, 48 h
Procedure: as §1, §2

## O=C1CCc2cc(OCCCBr)ccc2N1 [TR-G074, 6-(3-bromopropoxy)-3,4-dihydroquinolin-2(1H)-one]
[1]
  Cell Proliferation (%): 81%
  inhibition at 10 µM: 19%
U87-MG human glioma cell
  Cell Proliferation (%): 85%
  inhibition at 10 µM: 15%

## CCCOc1ccc2c(c1)CCC(=O)N2 [TR-G068, 6-propoxy-3,4-dihydroquinolin-2(1H)-one]
[1]
  activity at 10 µM: 82%
  inhibition at 10 µM: 18%
U87-MG human glioma cell
  activity at 10 µM: 59%
  inhibition at 10 µM: 42%

## CC(=O)c1ccc(NC(=O)COc2ccc3c(c2)CCC(=O)N3)cc1 [TR-G064, N-(4-acetylphenyl)-2-((2-oxo-1,2,3,4-tetrahydroquinolin-6-yl)oxy)acetamide]
[1]
  activity at 10 µM: 78%
  inhibition at 10 µM: 22%
U87-MG human glioma cell
  activity at 10 µM: 70%
  inhibition at 10 µM: 30%

## CC(C)C/C=N/NC(=O)COc1ccc2c(c1)CCC(=O)N2 [TR-G003, (E)-N'-(3-methylbutylidene)-2-((2-oxo-1,2,3,4-tetrahydroquinolin-6-yl)oxy)acetohydrazide]
[1]
  activity at 10 µM: 84%
  inhibition at 10 µM: 16%
U87-MG human glioma cell
  activity at 10 µM: 79%
  inhibition at 10 µM: 21%

## O=C1CCc2cc(OC(=O)c3cccc(F)c3)ccc2N1 [TR-G139, 2-oxo-1,2,3,4-tetrahydroquinolin-6-yl 3-flurobenzoate]
[1]
  activity at 10 µM: 83%
  inhibition at 10 µM: 17%
U87-MG human glioma cell
  activity at 10 µM: 71%
  inhibition at 10 µM: 29%

## O=C(COc1ccc2c(c1)CCC(=O)N2)N/N=C/c1ccco1 [TR-G025, (E)-N'-(furan-2-ylmethylene)-2-((2-oxo-1,2,3,4-tetrahydroquinolin-6-yl)oxy)acetohydrazide]
[1]
  activity at 10 µM: 90%
  inhibition at 10 µM: 10%
U87-MG human glioma cell
  activity at 10 µM: 75%
  inhibition at 10 µM: 25%

## CCCC(CCC)C(=O)Oc1ccc2c(c1)CCC(=O)N2 [TR-G062, 2-oxo-1,2,3,4-tetrahydroquinolin-6-yl 2-propylpentanoate]
[1]
  activity at 10 µM: 87%
  inhibition at 10 µM: 13%
U87-MG human glioma cell
  activity at 10 µM: 87%
  inhibition at 10 µM: 13%

## O=C1CCc2cc(OC(=O)Nc3ccc([N+](=O)[O-])cc3)ccc2N1 [TR-G133, 2-oxo-1,2,3,4-tetrahydroquinolin-6-yl (4-nitrophenyl)carbamate]
[1]
  activity at 10 µM: 77%
  inhibition at 10 µM: 23%
U87-MG human glioma cell
  activity at 10 µM: 93%
  inhibition at 10 µM: 7%

## O=C1CCc2cc(OC(=O)Nc3cccc4ccccc34)ccc2N1 [TR-G135, 2-oxo-1,2,3,4-tetrahydroquinolin-6-yl naphthalene-1-ylcarbamate]
[1]
  activity at 10 µM: 80%
  inhibition at 10 µM: 20%
U87-MG human glioma cell
  activity at 10 µM: 71%
  inhibition at 10 µM: 29%

## O=C1CCc2cc(OCCOCc3ccccc3)ccc2N1 [TR-G001, 6-(2-(benzyloxy)ethoxy)-3,4-dihydroquinolin-2(1H)-one]
[1]
  Cell Proliferation (%): 88%
  inhibition at 10 µM: 12%
U87-MG human glioma cell
  Cell Proliferation (%): 78%
  inhibition at 10 µM: 22%

## O=C1CCc2cc(OS(=O)(=O)c3cccc(Cl)c3Cl)ccc2N1 [TR-G042, 2-oxo-1,2,3,4-tetrahydroquinolin-6-yl 2,3-dichlorobenzenesulfonate]
[1]
  Cell Proliferation (%): 83%
  inhibition at 10 µM: 17%
U87-MG human glioma cell
  Cell Proliferation (%): 70%
  inhibition at 10 µM: 31%

## COc1cc(NC(=O)COc2ccc3c(c2)CCC(=O)N3)cc(OC)c1OC [TR-G094, 2-((2-oxo-1,2,3,4-tetrahydroquinolin-6-yl)oxy)-N-(3,4,5-trimethoxyphenyl)acetamide]
[1]
  activity at 10 µM: 80%
  inhibition at 10 µM: 20%
U87-MG human glioma cell
  activity at 10 µM: 78%
  inhibition at 10 µM: 22%

## O=C(COc1ccc2c(c1)CCC(=O)N2)Nc1ccc(Br)cc1 [TR-G123]
[1]
  activity at 10 µM: 109%
  inhibition at 10 µM: -9%
U87-MG human glioma cell
  activity at 10 µM: 92%
  inhibition at 10 µM: 8%

## O=C1CCc2cc(OS(=O)(=O)c3ccc(C(F)(F)F)cc3)ccc2N1 [TR-G073, 2-oxo-1,2,3,4-tetrahydroquinolin-6-yl 4-(trifluoromethyl)benzenesulfonate]
[1]
  activity at 10 µM: 94%
  inhibition at 10 µM: 6%
U87-MG human glioma cell
  activity at 10 µM: 87%
  inhibition at 10 µM: 13%

Reference: patent EP4644375A1, “SUBSTITUTED HYDROQUINOLINES FOR THE TREATMENT OF GLIOBLASTOMA MULTIFORME” (Molius Saglik Teknolojileri Anonim Sirketi, priority 2024, dated 2025)
